Results published in PMC7156458, “Synthetic biology based construction of biological activity-related library of fungal decalin-containing diterpenoid pyrones” (Nature Communications, 2020).

Target: Aβ42 (Homo sapiens, UniProt P05067)
Experiment: Th-T (thioflavin-T) assay of Aβ42 aggregation
Format: biochemical

Aβ42, sequence (P05067 672-713): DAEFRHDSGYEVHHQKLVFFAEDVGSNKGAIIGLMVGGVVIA

C=C1CCC2C(C)(CCC=C(C)C)C(O)CCC2(C)C1Cc1c(OC)oc(C)c(C(=O)OC)c1=O (stereo not drawn) [Compound 14]
Fig. 7a Th-T reading, mean of three wells (column suffix _20, reading M101): 1.75 | Fig. 7a Th-T reading, mean of three wells (column suffix _20, reading M102): 1.725 | Fig. 7a Th-T reading, mean of three wells (column suffix _20, reading M103): 1.692 | Fig. 7a Th-T reading, mean of three wells (column suffix _20, reading M104): 1.726 | Fig. 7a Th-T reading, mean of three wells (column suffix _20, reading M105): 1.714 | Fig. 7a Th-T reading, mean of three wells (column suffix _20, reading M106): 1.718 | Th-T fluorescence, mean of three wells (Fig. 7a) (column suffix _50, measurement M19): 0.5495 | Th-T fluorescence, mean of three wells (Fig. 7a) (column suffix _50, measurement M20): 0.5788 | Th-T fluorescence, mean of three wells (Fig. 7a) (column suffix _50, measurement M21): 0.6066 | Th-T fluorescence, mean of three wells (Fig. 7a) (column suffix _50, measurement M22): 0.6351 | Th-T fluorescence, mean of three wells (Fig. 7a) (column suffix _50, measurement M23): 0.669 | Th-T fluorescence, mean of three wells (Fig. 7a) (column suffix _50, measurement M24): 0.7075 | Th-T fluorescence, mean of three wells (Fig. 7a) (column suffix _50, measurement M25): 0.7535 | Th-T fluorescence, mean of three wells (Fig. 7a) (column suffix _50, measurement M26): 0.8076 | Th-T fluorescence, mean of three wells (Fig. 7a) (column suffix _50, measurement M27): 0.8688 | Th-T fluorescence, mean of three wells (Fig. 7a) (column suffix _50, measurement M28): 0.9376 | Th-T fluorescence, mean of three wells (Fig. 7a) (column suffix _50, measurement M29): 1.02 | Th-T assay signal, mean of three wells (Fig. 7a) (column suffix _50, reading M1): 0.5105 | Th-T assay signal, mean of three wells (Fig. 7a) (column suffix _50, reading M2): 0.462 | Th-T assay signal, mean of three wells (Fig. 7a) (column suffix _50, reading M3): 0.4558 | Th-T assay signal, mean of three wells (Fig. 7a) (column suffix _50, reading M4): 0.4485 | Th-T assay signal, mean of three wells (Fig. 7a) (column suffix _50, reading M5): 0.4526 | Th-T assay signal, mean of three wells (Fig. 7a) (column suffix _50, reading M6): 0.449 | Th-T assay signal, mean of three wells (Fig. 7a) (column suffix _50, reading M7): 0.4479 | Th-T assay signal, mean of three wells (Fig. 7a) (column suffix _50, reading M8): 0.4517 | Th-T assay signal, mean of three wells (Fig. 7a) (column suffix _50, reading M9): 0.4533 | Th-T assay signal, mean of three wells (Fig. 7a) (column suffix _50, reading M10): 0.4553 | Th-T assay signal, mean of three wells (Fig. 7a) (column suffix _50, reading M11): 0.4593 | Th-T assay signal, mean of three wells (Fig. 7a) (column suffix _50, reading M12): 0.4664 | Th-T assay signal, mean of three wells (Fig. 7a) (column suffix _50, reading M13): 0.4713 | Th-T assay signal, mean of three wells (Fig. 7a) (column suffix _50, reading M14): 0.4784 | Th-T assay signal, mean of three wells (Fig. 7a) (column suffix _50, reading M15): 0.4927 | Th-T assay signal, mean of three wells (Fig. 7a) (column suffix _50, reading M16): 0.5 | Th-T assay signal, mean of three wells (Fig. 7a) (column suffix _50, reading M17): 0.5148 | Th-T assay signal, mean of three wells (Fig. 7a) (column suffix _50, reading M18): 0.5358 | Fig. 7a Th-T reading, mean of three wells (column suffix _50, reading M85): 2.033 | Fig. 7a Th-T reading, mean of three wells (column suffix _50, reading M86): 1.994 | Fig. 7a Th-T reading, mean of three wells (column suffix _50, reading M87): 1.943 | Fig. 7a Th-T reading, mean of three wells (column suffix _50, reading M88): 1.897 | Fig. 7a Th-T reading, mean of three wells (column suffix _50, reading M89): 1.8491 | Fig. 7a Th-T reading, mean of three wells (column suffix _50, reading M90): 1.8142 | Fig. 7a Th-T reading, mean of three wells (column suffix _50, reading M91): 1.746 | Fig. 7a Th-T reading, mean of three wells (column suffix _50, reading M92): 1.726 | Fig. 7a Th-T reading, mean of three wells (column suffix _50, reading M93): 1.698 | Fig. 7a Th-T reading, mean of three wells (column suffix _50, reading M94): 1.676 | Fig. 7a Th-T reading, mean of three wells (column suffix _50, reading M95): 1.616 | Fig. 7a Th-T reading, mean of three wells (column suffix _50, reading M96): 1.587 | Fig. 7a Th-T reading, mean of three wells (column suffix _50, reading M97): 1.553 | Fig. 7a Th-T reading, mean of three wells (column suffix _50, reading M98): 1.5408 | Fig. 7a Th-T reading, mean of three wells (column suffix _50, reading M99): 1.482 | Fig. 7a Th-T reading, mean of three wells (column suffix _50, reading M100): 1.465 | Fig. 7a Th-T reading, mean of three wells (column suffix _50, reading M101): 1.408 | Fig. 7a Th-T reading, mean of three wells (column suffix _50, reading M102): 1.3987 | Fig. 7a Th-T reading, mean of three wells (column suffix _50, reading M103): 1.372 | Fig. 7a Th-T reading, mean of three wells (column suffix _50, reading M104): 1.353 | Fig. 7a Th-T reading, mean of three wells (column suffix _50, reading M105): 1.325 | Fig. 7a Th-T reading, mean of three wells (column suffix _50, reading M106): 1.281 | Th-T fluorescence, mean of three wells (compound at 10, reading M41 of time course): 2.4889 | Th-T fluorescence, mean of three wells (compound at 10, reading M42 of time course): 2.504 | Th-T fluorescence, mean of three wells (compound at 10, reading M43 of time course): 2.483 | Th-T fluorescence, mean of three wells (compound at 10, reading M44 of time course): 2.485 | Th-T fluorescence, mean of three wells (compound at 10, reading M45 of time course): 2.494 | Th-T fluorescence, mean of three wells (compound at 10, reading M46 of time course): 2.517 | Th-T fluorescence, mean of three wells (compound at 10, reading M47 of time course): 2.535 | Th-T fluorescence, mean of three wells (compound at 10, reading M48 of time course): 2.517 | Th-T fluorescence, mean of three wells (compound at 10, reading M49 of time course): 2.512 | Th-T fluorescence, mean of three wells (compound at 10, reading M50 of time course): 2.53 | Th-T fluorescence, mean of three wells (compound at 10, reading M51 of time course): 2.541 | Th-T fluorescence, mean of three wells (compound at 10, reading M52 of time course): 2.557 | Th-T fluorescence, mean of three wells (compound at 10, reading M53 of time course): 2.545 | Th-T fluorescence, mean of three wells (compound at 10, reading M54 of time course): 2.546 | Th-T fluorescence, mean of three wells (compound at 10, reading M55 of time course): 2.573 | Th-T fluorescence, mean of three wells (compound at 10, reading M56 of time course): 2.561 | Th-T fluorescence, mean of three wells (compound at 10, reading M57 of time course): 2.58 | Th-T fluorescence, mean of three wells (compound at 10, reading M58 of time course): 2.605 | Th-T fluorescence, mean of three wells (compound at 10, reading M59 of time course): 2.634 | Th-T fluorescence, mean of three wells (compound at 10, reading M60 of time course): 2.6643 | Th-T fluorescence, mean of three wells (compound at 10, reading M61 of time course): 2.702 | Th-T fluorescence, mean of three wells (compound at 10, reading M62 of time course): 2.713 | Th-T fluorescence, mean of three wells (compound at 20, reading M41 of time course): 2.067 | Th-T fluorescence, mean of three wells (compound at 20, reading M42 of time course): 2.077 | Th-T fluorescence, mean of three wells (compound at 20, reading M43 of time course): 2.068 | Th-T fluorescence, mean of three wells (compound at 20, reading M44 of time course): 2.111 | Th-T fluorescence, mean of three wells (compound at 20, reading M45 of time course): 2.074 | Th-T fluorescence, mean of three wells (compound at 20, reading M46 of time course): 2.138 | Th-T fluorescence, mean of three wells (compound at 20, reading M47 of time course): 2.131 | Th-T fluorescence, mean of three wells (compound at 20, reading M48 of time course): 2.161 | Th-T fluorescence, mean of three wells (compound at 20, reading M49 of time course): 2.157 | Th-T fluorescence, mean of three wells (compound at 20, reading M50 of time course): 2.15 | Th-T fluorescence, mean of three wells (compound at 20, reading M51 of time course): 2.157 | Th-T fluorescence, mean of three wells (compound at 20, reading M52 of time course): 2.143 | Th-T fluorescence, mean of three wells (compound at 20, reading M53 of time course): 2.161 | Th-T fluorescence, mean of three wells (compound at 20, reading M54 of time course): 2.178 | Th-T fluorescence, mean of three wells (compound at 20, reading M55 of time course): 2.1338 | Th-T fluorescence, mean of three wells (compound at 20, reading M56 of time course): 2.09 | Th-T fluorescence, mean of three wells (compound at 20, reading M57 of time course): 2.136 | Th-T fluorescence, mean of three wells (compound at 20, reading M58 of time course): 2.093 | Th-T fluorescence, mean of three wells (compound at 20, reading M59 of time course): 2.054 | Th-T fluorescence, mean of three wells (compound at 20, reading M60 of time course): 2.083 | Th-T fluorescence, mean of three wells (compound at 20, reading M61 of time course): 2.064 | Th-T fluorescence, mean of three wells (compound at 20, reading M62 of time course): 2.104 | Th-T fluorescence, mean of three wells (compound at 50, reading M41 of time course): 4.082 | Th-T fluorescence, mean of three wells (compound at 50, reading M42 of time course): 4.376 | Th-T fluorescence, mean of three wells (compound at 50, reading M43 of time course): 4.613 | Th-T fluorescence, mean of three wells (compound at 50, reading M44 of time course): 4.79 | Th-T fluorescence, mean of three wells (compound at 50, reading M45 of time course): 4.938 | Th-T fluorescence, mean of three wells (compound at 50, reading M46 of time course): 5.058 | Th-T fluorescence, mean of three wells (compound at 50, reading M47 of time course): 5.101 | Th-T fluorescence, mean of three wells (compound at 50, reading M48 of time course): 5.128 | Th-T fluorescence, mean of three wells (compound at 50, reading M49 of time course): 5.105 | Th-T fluorescence, mean of three wells (compound at 50, reading M50 of time course): 5.093 | Th-T fluorescence, mean of three wells (compound at 50, reading M51 of time course): 4.998 | Th-T fluorescence, mean of three wells (compound at 50, reading M52 of time course): 4.942 | Th-T fluorescence, mean of three wells (compound at 50, reading M53 of time course): 4.822
